For assay [1], the system named is Ba/F3 HER2YVMA cells. Kind of assay: Cellular proliferation in Ba/F3 HER2YVMA cells. The format is cell-based, murine. To be noted: Mus musculus, BaF3, read-out: Ba/F3 YVMA GI50. The procedure:
(§1) Engineered lines expressing HER2YVMA and HER2 WT were prepared in HEK293 (human embryonic kidney cells), Ba/F3 (Interleukin 3 (IL3)-dependent murine pro B cell line), and BEAS2B (primary immortalized human bronchial epithelial cell line). Ba/F3, BEAS2B, and HEK293 cells were obtained from the American Type Culture Collection (ATCC, Manassas, VA). Parental Ba/F3 cells were grown in suspension in complete RPMI 1640 supplemented with 10% FBS and 1% P/S and 10 ng/ml interleukin 3 (IL3, Sigma-Aldrich). Hek293 and BEAS2B cells were grown as monolayers in DMEM supplemented with 10% FBS and 1% P/S. All cells were maintained and propagated in a humidified 5% CO2 incubator at 37° C.
(§2) To generate Ba/F3, BEAS2B, and Hek-293 cells engineered with lentivirus to express HER2 WT or HER2YVMA, the cells were transduced with lentiviruses at multiplicity of infection (MOI) of 1 or 10; transduced cells were selected and maintained with G418 ([…]) (Geneticin, Life Technologies, Carlsbad, CA). Ba/F3 engineered cells were subjected to gradual withdrawal of interleukin 3 (IL-3, Sigma-Aldrich). After selection, IL3 independent Ba/F3 HER2YVMA, and BEAS2B HER2YVMA cells were cloned by limiting dilution. Hek293 HER2YVMA cells were used as pool. HER2 and phospho HER2 levels were confirmed by flow cytometery and immunoassay (MSD, Meso-Scale Discovery, Rockville, Maryland).
(§3) Cell proliferation in non-adherent cells was investigated in Ba/F3 parental (IL3-dependent) and in the two IL3 independent cell clones tranduced to express mutant HER2 protein containing the YVMA insertion (Ba/F3 HER2YVMA). Cells were plated in DMEM supplemented with 10% FBS, 1% P/S, and 10 ng/ml IL3 (for parental Ba/F3 only) in 96-well white clear-bottom tissue culture plates (Costar, Sigma-Aldrich) at a starting cell density of 7500 cells. An 8-point standard curve with varying cell densities (starting at 100,000 cells and serially diluting down 2-fold) was prepared for each cell line and read after plating. Compound solutions were prepared in serum free media, and cells were treated as described above for adherent cells. Cell viability was determined by CellTiter Glo (Promega, Madison, WI) after 72 h. The results were converted to cell numbers using a standard curve; growth inhibition (GI50 values) were determined by Graph Pad Prism.
(§4) The results of these experiments show the ability of compounds to inhibit cell growth in HER2 dependent cell lines and a control cell line (Ba/F3 parental) are depicted in Table 4 in the columns titled “G150 (nM)”. Ba/F3 parental results fall under the heading “Ba/F3 parental-G150”, and Ba/F3 HER2YVMA fall under the heading “Ba/F3 YVMA-G150”.

In assay [2] the test system is Ba/F3 parental cells. Put plainly: Cellular proliferation in Ba/F3 parental (IL3-dependent) cells. The format is cell-based, murine. To be noted: Mus musculus, BaF3. The procedure: as §1, §3, §4
The target of assay [3] is HER2YVMA (Homo sapiens, UniProt P04626, INS775YVMA). Kind of assay: HER2 signaling (pHER2) in Ba/F3-HER2YVMA cells. The format is cell-based. Details: expressed in transfected cells; host or cells: HEK293 (pool), Ba/F3 (clones), BEAS2B (clones); lentiviral vector pCDH-CMV-MCS-EF1-Neo. To be noted: read-out: Ba/F3 YVMA pHER2 EC50. On the procedure:
Cell culture, plasmid cloning, and lentiviral transduction were carried out according to standard procedures. The Human HER2 cDNA construct in pCMV6-Entry for the HER2 wildtype (WT) expression was obtained from Origene. The HER2 cDNA including the 12-nucleotide insertion corresponding to YVMA insertion (HER2YVMA) was codon optimized, synthesized and cloned by GenScript (Piscataway, NJ) in pcDNA3.1. The lentiviral constructs expressing HER2YVMA and HER2 WT were sub-cloned using PCR at System Biosciences (SBI, Mountainview, CA) into lentiviral vectors pCDH-CMV-MCS-EF1-Neo and lentiviral particles were generated.
as §1, §2
Compound treatment of Ba/F3-HER2YVMA suspension cells was done as described with minor modifications. Cells were plated at 300000 cell/well in 96-well round bottom plates in RPMI supplemented with 2% FBS and immediately dosed with compounds serially diluted in media without serum for a final concentration of 1% FBS, 0.1% DMSO. Cells were incubate with compounds for 1.5 hr, and plates were spun at 1500 rpm for 5 mins to remove media without disturbing pellet. Cells were lysed as described above.
HER2 signaling was evaluated using phospho (Tyr1248)/total ErbB2 whole cell lysate MSD plates (Meso-Scale Discovery, Gaithersburg, MD). The phospho HER2 signal was normalized to total HER2 for each sample; results are reported as % DMSO control. The normalized data was fitted using a sigmoidal curve analysis program (Graph Pad Prism version 6) with variable Hill slope to determine EC50 values.
The HER2 signaling results are provided in Table 4, under columns titled “BT474-pHER2 EC50”, “N87-pHER2 EC50”, and “NCI-H1781-pHER2 EC50”. Hek293-HER2YVMA ins fall under the heading “HEKYVMA-pHER2 EC50”, Ba/F3 HER2YVMA fall under the heading “Ba/F3 YVMA-pHER2 EC50” and BEAS2B-HER2YVMA fall under the heading “BEAS2B YVMA-pHER2 EC50”.

Sequence of HER2YVMA (P04626 with tags, fused parts or gaps INS775YVMA): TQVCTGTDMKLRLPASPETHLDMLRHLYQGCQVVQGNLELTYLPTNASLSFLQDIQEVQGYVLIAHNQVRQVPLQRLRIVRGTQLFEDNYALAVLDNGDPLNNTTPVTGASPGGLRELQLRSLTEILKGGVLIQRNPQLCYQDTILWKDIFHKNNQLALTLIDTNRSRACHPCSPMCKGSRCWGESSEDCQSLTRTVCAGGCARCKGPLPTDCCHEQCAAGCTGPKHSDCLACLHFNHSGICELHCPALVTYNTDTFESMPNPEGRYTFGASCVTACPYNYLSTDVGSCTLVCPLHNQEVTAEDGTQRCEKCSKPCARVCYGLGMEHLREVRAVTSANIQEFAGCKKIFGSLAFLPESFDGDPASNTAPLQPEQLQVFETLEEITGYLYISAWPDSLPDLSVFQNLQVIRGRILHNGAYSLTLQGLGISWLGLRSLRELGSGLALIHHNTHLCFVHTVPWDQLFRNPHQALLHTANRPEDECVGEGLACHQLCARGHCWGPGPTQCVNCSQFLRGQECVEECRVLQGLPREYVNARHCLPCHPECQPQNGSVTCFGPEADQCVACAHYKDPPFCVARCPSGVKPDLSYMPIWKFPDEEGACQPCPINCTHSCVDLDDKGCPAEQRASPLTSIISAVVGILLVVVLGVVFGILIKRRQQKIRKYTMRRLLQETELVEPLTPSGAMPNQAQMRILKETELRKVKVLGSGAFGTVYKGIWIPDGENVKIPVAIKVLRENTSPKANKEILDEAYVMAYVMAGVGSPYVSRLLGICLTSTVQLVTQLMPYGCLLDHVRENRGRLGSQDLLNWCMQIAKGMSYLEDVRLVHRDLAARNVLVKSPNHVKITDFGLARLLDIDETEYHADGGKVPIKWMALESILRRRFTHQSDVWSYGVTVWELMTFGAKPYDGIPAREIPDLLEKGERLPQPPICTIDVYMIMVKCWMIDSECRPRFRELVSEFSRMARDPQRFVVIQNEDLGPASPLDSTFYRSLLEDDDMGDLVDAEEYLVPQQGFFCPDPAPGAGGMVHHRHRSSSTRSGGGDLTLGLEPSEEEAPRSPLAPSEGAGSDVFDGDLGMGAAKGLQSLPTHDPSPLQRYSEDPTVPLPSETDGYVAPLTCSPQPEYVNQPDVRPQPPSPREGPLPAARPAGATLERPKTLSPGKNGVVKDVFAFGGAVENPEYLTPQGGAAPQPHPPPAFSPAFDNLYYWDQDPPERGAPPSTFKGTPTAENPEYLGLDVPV

Regarding `Cc1ccc(Oc2ccc(Nc3ncnc4sc5c(c34)CN(C(=O)/C=C/CN(C)C)C5)cc2C)cn1` [Compound 99, (E)-4-(dimethylamino)-1-(4-((3-methyl-4-((6-methylpyridin-3-yl)oxy)phenyl)amino)-5,7-dihydro-6H-pyrrolo[3′,4′:4,5]thieno[2,3-d]pyrimidin-6-yl)but-2-en-1-one], the GI50 in assay [1] was < 0.1 µM; in assay [2], 1 to 10 µM.

`Cc1ccc(Oc2ccc(Nc3ncnc4sc5c(c34)C(C)CN(C(=O)C=CCN(C)C)C5)cc2C)cn1` (single isomer, unassigned) [Compound 106]: the GI50 is < 0.1 µM in assay [1] and 1 to 10 µM in assay [2].

As for `Cc1ccc(Oc2ccc(Nc3ncnc4sc5c(c34)CCN(C(=O)/C=C/CN(C)C(C)(C)C)C5)cc2C)cn1` [Compound 33], the GI50 in assay [1] was < 0.1 µM; in assay [2], 1 to 10 µM. Besides, the EC50 in assay [3] is < 0.1 µM.

As to `COc1ccc(Oc2ccc(Nc3ncnc4sc5c(c34)CCN(C(=O)/C=C/CN(C)C)C5)cc2C)cn1` [Compound 95, (E)-4-(Dimethylamino)-1-(4-((4-((6-methoxypyridin-3-yl)oxy)-3-methylphenyl)amino)-5,6-dihydropyrido[4′,3′:4,5]thieno[2,3-d]pyrimidin-7(8H)-yl)but-2-en-1-one], the figures for the GI50 in assay [1] and in assay [2] were < 0.1 µM and 1 to 10 µM, respectively.

As to `Cc1ccc(Oc2ccc(Nc3ncnc4sc5c(c34)CCN(C(=O)/C=C/CN3CC4C(CO)C4C3)C5)cc2C)cn1` (stereo not shown) [Compound 34], the values for the GI50 in assay [1] and in assay [2] were < 0.1 µM and 1 to 10 µM, respectively. In addition, the EC50 in assay [3] was < 0.1 µM.

As for `CN(C)C/C=C/C(=O)N1CCc2c(sc3ncnc(Nc4ccc(Oc5ccc6ncnn6c5)c(Cl)c4)c23)C1` [Compound 5, (E)-1-(4-((4-([1,2,4]triazolo[1,5-a]pyridin-6-yloxy)-3-chlorophenyl)amino)-5,8-dihydropyrido[4′,3′:4,5]thieno[2,3-d]pyrimidin-7(6H)-yl)-4-(dimethylamino)but-2-en-1-one], the EC50 in assay [3] is < 0.1 µM.

These data come from patent US20240391931A1 (Bristol-Myers Squibb Company, priority 2021, published 2024).
